From ChEMBL document CHEMBL1629667, “Activities of dalbavancin against a worldwide collection of 81,673 gram-positive bacterial isolates” (2009)

Experiments:
Assay type in all cases: functional
Staphylococcus aureus = test: Antimicrobial activity against Oxacillin-susceptible Staphylococcus aureus assessed as percent resistant isolates by broth microdilution method
Streptococcus [1] = test: Antimicrobial activity against Beta-hemolytic Streptococcus assessed as percent susceptible isolate by broth microdilution method
Streptococcus [2] = test: Antimicrobial activity against viridans group Streptococcus assessed as percent susceptible isolate by broth microdilution method
Enterococcus faecalis [3] = test: Antimicrobial activity against Enterococcus faecalis VanA assessed as growth inhibition at 0.06 ug/ml by broth microdilution method
Enterococcus faecalis [4] = test: Antimicrobial activity against Enterococcus faecalis VanA assessed as growth inhibition at 0.12 ug/ml by broth microdilution method
Enterococcus faecalis [5] = test: Antimicrobial activity against Enterococcus faecalis VanB assessed as growth inhibition at 0.12 ug/ml by broth microdilution method
Enterococcus faecalis [6] = test: Antimicrobial activity against Enterococcus faecalis VanB assessed as growth inhibition at 0.25 ug/ml by broth microdilution method
Enterococcus faecalis [7] = test: Antimicrobial activity against Enterococcus faecalis VanB assessed as growth inhibition at 2 ug/ml by broth microdilution method
Enterococcus faecium [8] = test: Antimicrobial activity against Enterococcus faecium VanA assessed as growth inhibition at =<[…] ug/ml by broth microdilution method
Enterococcus faecium [9] = test: Antimicrobial activity against Enterococcus faecium VanA assessed as growth inhibition at 0.06 ug/ml by broth microdilution method
[10] = test system: Streptococcus sp. 'group A'; test: Antimicrobial activity against Beta-hemolytic Streptococcus sp. 'group A' assessed as growth inhibition at 0.12 ug/ml by broth microdilution method
[11] = test system: Streptococcus sp. 'group B'; test: Antimicrobial activity against Beta-hemolytic Streptococcus sp. 'group B' assessed as growth inhibition at =<[…] ug/ml by broth microdilution method
[12] = test system: Streptococcus sp. 'group B'; test: Antimicrobial activity against Beta-hemolytic Streptococcus sp. 'group B' assessed as growth inhibition at 0.12 ug/ml by broth microdilution method
[13] = test system: Streptococcus sp. 'group B'; test: Antimicrobial activity against Beta-hemolytic Streptococcus sp. 'group B' assessed as growth inhibition at 0.25 ug/ml by broth microdilution method
[14] = Antimicrobial activity against Beta-hemolytic Streptococcus sp. 'group G' assessed as growth inhibition at 0.06 ug/ml by broth microdilution method
Staphylococcus = test: Antimicrobial activity against Oxacillin-resistant coagulase-negative Staphylococcus assessed as percent resistant isolate by broth microdilution method

Structure (SMILES): CN[C@H](CC(C)C)C(=O)N[C@H]1C(=O)N[C@@H](CC(N)=O)C(=O)N[C@H]2C(=O)N[C@H]3C(=O)N[C@H](C(=O)N[C@H](C(=O)O)c4cc(O)cc(O)c4-c4cc3ccc4O)[C@H](O)c3ccc(c(Cl)c3)Oc3cc2cc(c3O[C@@H]2O[C@H](CO)[C@@H](O)[C@H](O)[C@H]2O[C@H]2C[C@](C)(N)[C@H](O)[C@H](C)O2)Oc2ccc(cc2Cl)[C@H]1O [VANCOMYCIN]
- Activity (Staphylococcus aureus): 0%
- Activity (Streptococcus [1]): 100%
- Activity (Streptococcus [2]): 99.9%
- inhibition at 0.06 µg/mL (Enterococcus faecalis [3]): 0.9%
- inhibition at 0.12 µg/mL (Enterococcus faecalis [4]): 2.6%
- inhibition at 0.12 µg/mL (Enterococcus faecalis [5]): 70.2%
- inhibition at 0.25 µg/mL (Enterococcus faecalis [6]): 70.2%
- inhibition at 2 µg/mL (Enterococcus faecalis [7]): 85.7%
- inhibition (INH) (Enterococcus faecium [8]): 0.1%
- inhibition at 0.06 µg/mL (Enterococcus faecium [9]): 0.3%
- inhibition at 0.12 µg/mL [10]: > 99.9%
- inhibition (INH) [11]: 90.3%
- inhibition at 0.12 µg/mL [12]: 99.6%
- inhibition at 0.25 µg/mL [13]: 100%
- inhibition at 0.06 µg/mL [14]: 99.6%
- Activity (Staphylococcus): 0%
